Data taken from patent publication EP0845210A1, “New herbicidal compositions” (RHONE-POULENC AGRICULTURE LTD., priority 1994, dated 1996).

Legend:
Type in all cases: in vivo
Setaria viridis = test: Procedure A: pre-emergence glasshouse pot test, growth reduction assessed two weeks after treatment; conditions: Table A1
Source text: (§1) Seed of the various species of broad-leaf or grass weeds were sown in unsterilised clay loam soil in 7 centimetre by 7 centimetre plastic plant pots. The pots were watered and allowed to drain. The soil surface was then sprayed with ranges of concentrations of either the individual herbicide or mixtures of two herbicides in various proportions, dissolved in a 50:50 by volume solution of acetone and water, using a track sprayer set to deliver the equivalent of 290 l/ha. All herbicides were used as unformulated technical materials except dimethenamid, which was used as the commercial formulation "Frontiere" (trade mark), a flowable containing 900g/l active ingredient; and alachlor, which was used as "Lasso" (trade mark), an emulsifiable concentrate formulation containing 480g/l active ingredient.
(§2) Treated pots were placed at random in four replicate blocks per treatment for each plant species. The pots were held, in a glasshouse, standing on moist capillary matting, under lights and with overhead watering twice daily.
(§3) Two weeks after treatment the percent reduction in plant growth, compared to an untreated control, was assessed.
(§4) Mean percent reduction in plant growth was calculated for each treatment. Dose/mean response was plotted on Log concentration/Probability graph paper, and lines fitted by eye. For herbicide mixtures a dose/response line for the first herbicide was drawn for each dose rate of the second herbicide and a dose/response line for the second herbicide was drawn for each dose rate of the first herbicide. The doses representing a 90% reduction in plant growth (LD90's) were read from these lines and plotted on graphs whose axes were dose rates of the two herbicides. The line joining these points is an Isobole i.e. a line joining points (mixtures) of equal activity, as described by P.M.L. Tammes, Neth. J. Plant Path. 70 (1964) : 73-80. A line was also drawn joining the LD90's of the individual components of the mixture. This line represents the theoretical isobole if the effect of the two components is additive i.e. there is no interaction between them. Isoboles falling below this line indicate synergy between the components while lines lying above it indicate antagonism.
(§5) In the tables that follow 'dose' represents the dose rate in grammes per hectare of the active ingredient used; and the figures for the weed control are percentages reduction in growth when compared with the untreated controls.

Amaranthus retroflexus = test: as above; conditions: Table A2
Source text: as §1, §2, §3, §4, §5

Digitaria sanguinalis = test: as above
Source text: as §1, §2, §3, §4, §5

Echinochloa crus-galli = test: as above
Source text: as §1, §2, §3, §4, §5

maize = test: Procedure C: field trial of crop phytotoxicity, visual assessment 40 days after sowing
Experimental: The experiments were carried out pre-emergence of the weed species at various research farm locations throughout the Mid-West corn belt in United States of America with Compounds A and D (each formulated as wettable powders) and metolachlor (formulated as a 96% emulsifiable concentrate), alachlor (formulated as a 48% emulsifiable concentrate) and dimethenamid (formulated as a 90% emulsifiable concentrate).
Various mixtures of the above 4-benzoylisoxazoles and chloroacetamides were weighed out and dissolved in water to give a solution containing the appropriate concentrations and ratios of active ingredients.
The solution was mixed for one hour and applied at a spray volume of 231 litres/hectare to a 3 metre by 5 metre test plot comprising the maize seed which were sown 2 days earlier. 3 replicates were performed. The experiments were performed using seven varities of maize (except for the mixtures comprising alachlor at 1120 g per hectare, where four varieties were used). A control plot was sprayed with a solution not containing test compound. Visual assessment of phytotoxicity was made 40 days after sowing the maize seeds based on a comparison with the control plot. Table F1

maize (Zea mays) = test: Procedure D: pre-emergence field trial (Volga, Brookings), crop phytotoxicity about 26 days after treatment; conditions: A 37.5 g/ha alone
Experimental: The following experiments were carried out pre-emergence of the weed species. Compound A, formulated as a wettable dispersible granule as described in Example 1 herebelow (750g per kilogram) and each acetochlor (used as the commercially available formulation "Harness" (trade mark), an emulsifiable concentrate containing 960g of acetochlor per kilogram, and which also contains the safening agent flurazole, metolachlor (used as the commercially available formulation "Duelor" (trade mark), an emulsifiable concentrate emulsifiable concentrate containing 960g of metolachlor per kilogram), alachlor (used as the commercially available formulation "Lasso" (trade mark), an emulsifiable concentrate containing 480g of alachlor per kilogram) and dimethenamid (used as the commercially available formulation "Frontiere" (trade mark), a flowable containing 900g/l active ingerident) were dissolved in water and sprayed at a volume rate of 187 litres/hectare on various test plots (10 square meters in area) either alone or in mixtures. The soil was a clay-loam, with a pH of 7, the experiments being conducted in June in Volga, Brookings, U.S.A. The various weed and crop species were drill sown and the various compositions were applied on the same day after drilling. Three replicates were performed and the efficacy of the various mixtures were determined by visual assessment of the percentage phytotoxicity in comparison with an untreated control. Assessment was made about 26 days after treatment. In the Tables which follow the dose is expressed in grammes per hectare and the figures in brackets represent the expected results according to the Colby formula.

CS(=O)(=O)c1cc(C(F)(F)F)ccc1C(=O)c1cnoc1C1CC1 [Compound A, 5-cyclopropyl-4-(2-methylsulphonyl-4-trifluoromethyl)benzoylisoxazole]
percent reduction in plant growth (Setaria viridis; A 0.5 g/ha alone): 15% | percent reduction in plant growth (Setaria viridis; A 1 g/ha alone): 5% | percent reduction in plant growth (Setaria viridis; A 2 g/ha alone): 47.5% | percent reduction in plant growth (Setaria viridis; A 4 g/ha alone): 33.75% | percent reduction in plant growth (Setaria viridis; A 8 g/ha alone): 38.75% | percent reduction in plant growth (Setaria viridis; A 16 g/ha alone): 53.75% | percent reduction in plant growth (Setaria viridis; A 32 g/ha alone): 70% | percent reduction in plant growth (Setaria viridis; A 64 g/ha alone): 76% | percent reduction in plant growth (Setaria viridis; A 128 g/ha alone): 88.75% | percent reduction in plant growth (Amaranthus retroflexus; A 1 g/ha alone): 12.5% | percent reduction in plant growth (Amaranthus retroflexus; A 2 g/ha alone): 51.25% | percent reduction in plant growth (Amaranthus retroflexus; A 4 g/ha alone): 12.5% | percent reduction in plant growth (Amaranthus retroflexus; A 8 g/ha alone): 87.5% | percent reduction in plant growth (Amaranthus retroflexus; A 16 g/ha alone): 92.5% | percent reduction in plant growth (Amaranthus retroflexus; A 32 g/ha alone): 99.75% | percent reduction in plant growth (Amaranthus retroflexus; A 64 g/ha alone): 99.75% | percent reduction in plant growth (Digitaria sanguinalis; A 1 g/ha alone, Table B1): 18.75% | percent reduction in plant growth (Digitaria sanguinalis; A 1 g/ha alone, Table D1): 0% | percent reduction in plant growth (Digitaria sanguinalis; A 2 g/ha alone, Table B1): 20% | percent reduction in plant growth (Digitaria sanguinalis; A 2 g/ha alone, Table C1): 20% | percent reduction in plant growth (Digitaria sanguinalis; A 2 g/ha alone, Table D1): 12.5% | percent reduction in plant growth (Digitaria sanguinalis; A 4 g/ha alone, Table B1): 33.75% | percent reduction in plant growth (Digitaria sanguinalis; A 4 g/ha alone, Table C1): 40% | percent reduction in plant growth (Digitaria sanguinalis; A 4 g/ha alone, Table D1): 17.5% | percent reduction in plant growth (Digitaria sanguinalis; A 8 g/ha alone, Table B1): 67.5% | percent reduction in plant growth (Digitaria sanguinalis; A 8 g/ha alone, Table C1): 7.5% | percent reduction in plant growth (Digitaria sanguinalis; A 8 g/ha alone, Table D1): 61.25% | percent reduction in plant growth (Digitaria sanguinalis; A 16 g/ha alone, Table B1): 50% | percent reduction in plant growth (Digitaria sanguinalis; A 16 g/ha alone, Table C1): 50% | percent reduction in plant growth (Digitaria sanguinalis; A 16 g/ha alone, Table D1): 67.5% | percent reduction in plant growth (Digitaria sanguinalis; A 32 g/ha alone, Table B1): 73.5% | percent reduction in plant growth (Digitaria sanguinalis; A 32 g/ha alone, Table C1): 74.75% | percent reduction in plant growth (Digitaria sanguinalis; A 32 g/ha alone, Table D1): 66% | percent reduction in plant growth (Digitaria sanguinalis; A 64 g/ha alone, Table B1): 87.5% | percent reduction in plant growth (Digitaria sanguinalis; A 64 g/ha alone, Table C1): 80% | percent reduction in plant growth (Digitaria sanguinalis; A 64 g/ha alone, Table D1): 95% | percent reduction in plant growth (Digitaria sanguinalis; A 128 g/ha alone, Table C1): 93.5% | percent reduction in plant growth (Digitaria sanguinalis; A 128 g/ha alone, Table D1): 76.25% | percent reduction in plant growth (Digitaria sanguinalis; A 256 g/ha alone, Table D1): 98.75% | percent reduction in plant growth (Echinochloa crus-galli; A 1 g/ha alone, Table B2): 12.5% | percent reduction in plant growth (Echinochloa crus-galli; A 1 g/ha alone, Table D2): 11.25% | percent reduction in plant growth (Echinochloa crus-galli; A 2 g/ha alone, Table B2): 6.25% | percent reduction in plant growth (Echinochloa crus-galli; A 2 g/ha alone, Table C2): 3.75% | percent reduction in plant growth (Echinochloa crus-galli; A 2 g/ha alone, Table D2): 7.5% | percent reduction in plant growth (Echinochloa crus-galli; A 4 g/ha alone, Table B2): 1.25% | percent reduction in plant growth (Echinochloa crus-galli; A 4 g/ha alone, Table C2): 2.5% | percent reduction in plant growth (Echinochloa crus-galli; A 4 g/ha alone, Table D2): 15% | percent reduction in plant growth (Echinochloa crus-galli; A 8 g/ha alone, Table B2): 61.25% | percent reduction in plant growth (Echinochloa crus-galli; A 8 g/ha alone, Table C2): 32.5% | percent reduction in plant growth (Echinochloa crus-galli; A 8 g/ha alone, Table D2): 15% | percent reduction in plant growth (Echinochloa crus-galli; A 16 g/ha alone, Table B2): 71.25% | percent reduction in plant growth (Echinochloa crus-galli; A 16 g/ha alone, Table C2): 60% | percent reduction in plant growth (Echinochloa crus-galli; A 16 g/ha alone, Table D2): 62.5% | percent reduction in plant growth (Echinochloa crus-galli; A 32 g/ha alone, Table B2): 75% | percent reduction in plant growth (Echinochloa crus-galli; A 32 g/ha alone, Table C2): 90% | percent reduction in plant growth (Echinochloa crus-galli; A 32 g/ha alone, Table D2): 86% | percent reduction in plant growth (Echinochloa crus-galli; A 64 g/ha alone, Table B2): 93.5% | percent reduction in plant growth (Echinochloa crus-galli; A 64 g/ha alone, Table C2): 97% | percent reduction in plant growth (Echinochloa crus-galli; A 64 g/ha alone, Table D2): 87.5% | percent reduction in plant growth (Echinochloa crus-galli; A 128 g/ha alone, Table B2): 93.75% | percent reduction in plant growth (Echinochloa crus-galli; A 128 g/ha alone, Table C2): 99.75% | percent reduction in plant growth (Echinochloa crus-galli; A 128 g/ha alone, Table D2): 99.5% | percent reduction in plant growth (Echinochloa crus-galli; A 256 g/ha alone, Table D2): 92.5% | Visual assessment of phytotoxicity (maize; A 78 g/ha alone): 0 | Visual assessment of phytotoxicity (maize; A 105 g/ha alone): 0 | percentage phytotoxicity (maize (Zea mays)): 0%
